Measured values from patent US8394785B2, “Methods for the treatment and amelioration of urticaria” (Jado Technologies GmbH, priority 2005, dated 2013).

Key:
human basophils = assay: Histamine release assay, C5a induced, human basophils; format: cell-based
Experimental: Human basophils were isolated from whole blood using ficoll paque (D=1.077). Briefly, heparinized whole blood was diluted 1:3 with PBS (w/o Ca and Mg), layered on the ficoll paque solution, and centrifuged for 30 min at 400×g. Low-density particles such as lymphocytes, monocytes, basophils, and platelets were recovered from the interface between the plasma and ficoll solution. The cell suspension from the interface was centrifuged twice at 200×g for 10 min for removal of thrombocytes from the basophil fraction. The number of basophils in the cell suspension was determined by Toluidin blue staining. The yield of basophils was approximately 2%. These pre-purified basophils were used for the histamine release assay. For the cytokine release assays, basophils were further purified using the “Basophil Isolation Kit” for depletion of non-basophils from the interface cell suspension. […] The quantification of histamine levels was achieved using an automated histamine-analyser system (Firm Borgwelt Technik). The wavelength of the excitation was 355-360 nm and the emission wavelength of fluorescence measurement was 450-460 nm. The intensity of fluorescence was directly proportional to the concentration of histamine in the samples. The amount of released histamine was calculated according to the following formula: net histamine release=(release−blank)×(100/complete). […]

[1] = test system: C57 mouse mast cell line transfected with the alpha chain of the human high affinity IgE receptor; assay: Histamine release assay, anti-human-IgE induced, C57 cells; format: cell-based; settings: anti-human-IgE stimulation; 60 min pre-incubation
Experimental: Stock solution of miltefosine (5 mM) was prepared in DMSO and stored at −20° C. For preparation of the working concentration (2 mM), the stock solution was diluted with PAG-CM (PAG-CM=PIPES Albumin Glucose with Calcium und Magnesium). All other dilutions of miltefosine were prepared with 40% DMSO in PAG-CM buffer. The quantification of histamine levels was achieved using an automated histamine-analyser system (Firm Borgwelt Technik). The wavelength of the excitation was 355-360 nm and the emission wavelength of fluorescence measurement was 450-460 nm. The intensity of fluorescence was directly proportional to the concentration of histamine in the samples. The amount of released histamine was calculated according to the following formula: net histamine release=(release−blank)×(100/complete). “Release”, in this context, was defined as the supernatant of stimulated cells, e.g. by anti-IgE, whereas supernatants of non stimulated cells, i.e. spontaneous release, was termed “blank”. “Complete” stands for the total histamine content of mast cells (after lysing with perchloric acid). The histamine release assays were performed in the PAG-CM buffer system. The numbers of mast cells or basophils in each sample used for histamine release assays was approximately 1×10^4 cells. For stimulation, cells were exposed to anti-IgE, Substance P, Ca-ionophore, or C5a. […]

Q: What does the source list for CCCCCCCCCCCCCCCCOP(=O)([O-])OCC[N+](C)(C)C [Compound 3, 1-hexadecylphosphoryl-choline]?
A: inhibition at 25 µM (human basophils): 75%; maximal inhibition of histamine release [1]: 40%
